Assays:
[1] = tested on: PDAC cell lines: MIA PaCa-2; PANC-1; Capan-1; AsPC-1; test: Cell proliferation / viability assay (CellTiter-Glo); format: cell-based; conditions: for cell proliferation (viability): PDAC cells, 48 h and 72 h, Cell-Titer Glo
Method: FIGS. 2A-2D are viability curves of DMDAPatA and DMPatA in four representative PDAC cell lines: MIA PaCa-2; Panc-1; Capan-1; and AsPC-1. PDAC cell lines were treated with DMPatA and DMDAPatA at the indicated concentrations for 48 h and 72 h. Cell viability was determined using Cell-Titer Glo (Promega). Viability (%, Y-axis) was plotted against drug concentration (log nM, X-axis). In the figures, MZ is DMPatA and PatA is DMDAPatA.
See Example 2. FIGS. 2A-2D are viability curves of DMDAPatA and DMPatA in four representative PDAC cell lines: MIA PaCa-2; PANC-1; Capan-1; and AsPC-1.
In this example, the effectiveness of DMPatA and DMDAPatA in reducing the proliferation of PDAC cancer cell lines is described.
Cell viability was measured using CellTiter-Glo® reagent (Promega, #G7570), according to the manufacturer's instructions. Briefly, cells were seeded at a density of […] in white 96-well plates and allowed to grow overnight. Cells were then treated with/without the combination and single agents as described earlier and incubated 37° C. and 5% CO2 for appropriate time points. After incubation assay reagent was added to the cells and luminescent signal values were quantified using microplate reader (PHERAstar® FS, BMG LABTECH, Ortenberg, Germany).

Cyclin D1 = test: Western blot of oncoproteins in PDAC cell lines; format: cell-based; conditions: PDAC cell lines MIA PaCa-2 and AsPC-1, western blot
From the text: (§1) FIGS. 3A and 3B are images of western blots showing the effect of DMDAPatA and DMPatA in PDAC cell lines (MiaPaca-2 and AsPc-1). In the figures, MZ735 is DMPatA and PatA is DMDAPatA.
(§2) FIGS. 5A and 5B are images of western blots showing the effect of DMPatA and DMDAPatA on oncoproteins c-MYC and Cyclin D1 in PDAC cell lines: MIA PaCa-2; PANC-1; Capan-1; and AsPC-1. In the figures, MZ is DMPatA and PatA is DMDAPatA.
(§3) eIF4A inhibitors selectively repress the expression levels of key proteins in PDAC cell lines. FIGS. 3A and 3B are images of western blots showing the effect of DMDAPatA and DMPatA in PDAC cell lines (MIA PaCa-2 and AsPC-1). […] These proteins are commonly used as controls in western blot analysis and are so-called because they are typically not susceptible to agents that alter gene or protein expression.
(§4) FIGS. 5A and 5B are images of western blots showing the effect of DMPatA and DMDAPatA on oncoproteins c-MYC and Cyclin D1 in PDAC cell lines: MIA PaCa-2; PANC-1; Capan-1; and AsPC-1.

c-MYC = test: Western blot of oncoproteins in PDAC cell lines; format: cell-based; conditions: PDAC cell lines MIA PaCa-2 and AsPC-1, western blot
From the text: as §1, §2, §3, §4

hyaluronic acid = test: Hyaluronic acid staining (biotinylated-HABP, confocal imaging, CTCF); format: cell-based; conditions: MIA PaCa-2 cells, 5 nM DMPatA, 24 h versus untreated control, CTCF (P<0.05)
Method: (§5) CD44 is the cell surface receptor for hyaluronic acid. Dense stroma with high levels of hyaluronic acid and extracellular matrix are among factors that are said to contribute to drug resistance in PDAC due to reduced permeability of anticancer therapies. Reduction of CD44 could facilitate the activity of chemotherapy or other combination therapy. MIA PaCa-2 cells were treated with 5 nM of DMPatA for 24 h versus untreated control. Cells were stained for HA using biotinylated-HABP and anti-CD44. FIG. 6A compares the analysis of the corrected total cell fluorescence (CTCF) based on data extracted from confocal imaging (P<0.05) and FIG. 6B compares western blot showing the effect of DMPatA and DMDAPatA on stromal proteins HAS3 and CD44. In the figures, MZ and MZ735 are DMPatA and PatA is DMDAPatA.
(§6) MIA PaCa-2 cells were treated with 5 nM of DMPatA for 24 h versus untreated control. Cells were stained for HA using biotinylated-HABP and anti-CD44. FIG. 6A compares the analysis of the corrected total cell fluorescence (CTCF) based on data extracted from confocal imaging (P<0.05) and FIG. 6B compares western blot showing the effect of DMPatA and DMDAPatA on stromal proteins HAS3 and CD44.

CD44 = CD44 level (anti-CD44 confocal imaging, western blot); format: cell-based; conditions: MIA PaCa-2 cells, 5 nM DMPatA, 24 h, CTCF (P<0.05)
Method: as §5, §6

[2] = Protein binding in human plasma; format: in vitro ADME
[3] = compared with parent natural product PatA; cited from earlier work
Mia-Paca-2 cells = test: Mouse xenograph model (subcutaneous Mia-Paca-2 tumors); format: in vivo, female athymic nude mice
From the text: In this example, the effectiveness of DMPatA in reducing tumor size in a mouse xenograph model is described.
Intraperitoneal therapy for PDAC. One of the most difficult complications of pancreatic cancer is the development of peritoneal carcinomatosis, which may occur as the presenting manifestation of PDAC, much as occurs with ovarian cancer, or may appear late in the course of the disease. In either case, the prognosis for peritoneal carcinomatosis and cytology-positive ascites is grim, at times portending survival of only a few weeks. […] The second major problem is that recurrent ascites requires frequent large volume paracentesis—which depletes the patient of protein and nutrients. […] Des-methyl pateamine A (DMPatA, MZ735) can be used as a novel intraperitoneal therapy able to directly treat intraperitoneal carcinomatosis. In certain embodiments, the safe intraperitoneal dose is 0.075-0.1 mg/kg, as established in a mouse xenograpgh model.
Fifteen female athymic nude mice were implanted with 5×10^6 Mia-Paca-2 cells, injected subcutaneously into the right flank with 50% Matrigel. Once tumors reached 100-200 mm^3 in volume, mice were randomized and enrolled into the study with three treatment groups including vehicle, MZ735 0.075, MZ735 0.1 mg/kg.
Mice were dosed once every four days interperitoneally (IP) for 28 days. Weights were taken twice per week to ensure overall health. All formulations were prepared on a day prior to, or on the day of dosing, using a serial dilution method and stored at 4° C. Formulations for this study were made using a vehicle of 10% Ethanol, 10% Cremophor EL, 4% glucose, and 76% PBS.
Body weights and tumor measurements were recorded twice weekly per OPTIC core-Tumor Growth Measurement at Columbia University.
At the end of the study mice were euthanized via CO2 asphyxiation, per IACUC approved Euthanasia protocol at Columbia University.

GAPDH and beta-actin = test: Western blot of housekeeping proteins; format: cell-based; conditions: PDAC cell lines
From the text: as §1, §3

Compound	cell proliferation (viability) [1]	protein level of Cyclin D1 (Cyclin D1)	protein level of c-MYC (c-MYC)	levels of hyaluronic acid (hyaluronic acid)	levels of CD44 (CD44)	protein binding in human plasma [2]	stability relative to PatA [3]	volume of subcutaneously implanted tumors (Mia-Paca-2 cells; 0.075-0.1 mg/kg IP once every four days for 28 days, Mia-Paca-2 xenograft)	absorption via the peritoneum (Mia-Paca-2 cells; intraperitoneal dose 0.075-0.1 mg/kg, mouse)	safe intraperitoneal dose (Mia-Paca-2 cells; mouse xenograph model, intraperitoneal)	potency relative to DMDAPatA ([1]; viability curves in four PDAC cell lines)	expression of housekeeping proteins GAPDH and beta-actin (GAPDH and beta-actin)
CC(/C=C/C(C)=C/[C@@H]1Cc2nc(cs2)CCCCC(=O)O[C@@H](C)C/C(C)=C/C=C\C(=O)O1)=C\CN(C)C [DMDAPatA, des-methyl des-amino pateamine A]	inhibit cell proliferation	inhibiting the protein level	inhibiting the protein level	reduce the levels	reduce the levels	highly protein bound	more stable	–	–	–	–	–
des-methyl pateamine A [DMPatA]	inhibit cell proliferation	inhibiting the protein level	inhibiting the protein level	reduce the levels	reduce the levels	–	–	reduce the volume of subcutaneously implanted tumors	can be absorbed via the peritoneum	0.075 to 0.1 mg/kg	greater potency relative to DMDAPatA	stably expressed
